# Measurements reported in US6936637B2, “Prevention of apoptosis in non-cancerous cells” (University of Tennessee Research Foundation, priority 1999, dated 2005).
# Assays:
# IEC-6 cells [1] = test: Floating cell count (detachment-induced cell death, apoptosis); assay type: cell-based, rat; conditions: for number of floating cells compared to control: FIG. 4; for floating cells (percentage of total cell count): camptothecin exposure
# Procedure: IEC-6 cells, having the ATCC designation CRL-1592, were obtained from the American Type Culture Collection at passage 13. The IEC-6 cells are normal, non-cancerous intestinal epithelial cells derived from fetal rat crypt cells. These cells are non-tumorigenic and retain the undifferentiated character of epithelial stem cells. The IEC-6 cell stock was maintained in T-150 flasks in a humidified, 37° C. incubator in an atmosphere of 90:10 air:CO2. The medium used was Dulbecco's modified Eagle medium (DMEM) (Gibco BRL, Grand Island, N.Y.) with 5% heat inactivated fetal bovine serum (FBS) (Sigma, St. Louis, Mo.) and 10 μg insulin and 50 μg gentamicin sulfate per ml. The stock was passaged weekly at 1:10, fed 3 times per week, and passages 15-20 were used. The cells were plated on day 0 at a density of 6.25×10^4 cells/cm^2 in T-150 flasks in DMEM/dFBS (dialyzed fetal bovine serum with 10,000 molecular weight cut-off) (Sigma, St. Louis, Mo.) with or without the treatment compound or compounds described in the Examples that follow. The cells were fed on day 2. On day 3, medium was removed and replaced with serum-free medium. On day 4, camptothecin (Sigma, St. Louis, Mo.) in a DMSO vehicle was added to a concentration of 20 μM into the serum-free medium containing the cells of Example 1 for 3 to 18 hours, with the vehicle (DMSO) added to controls. Detachment-induced cell death (DICD) is a well recognized form of apoptosis in anchorage-dependent cell types, such as intestinal epithelial cells. Floating cells were poured into a 25 ml tube and the monolayer was washed once with HBSS without calcium and magnesium. This wash was then combined into the tube with the floating cells. Attached cells were taken up with 0.05% trypsin plus 0.53 MM EDTA, followed by one wash of the flask with DMEM/5% FBS. Cell counts were determined separately for floating and attached cells by counting on a Model ZF Coulter counter. Floating cells were expressed as a percentage of the total cell count obtained by combining the number of floating and attached cells.
# caspase 3 [2] = conditions: putrescine up to 5 μM added to cell extracts from DFMO treated cells
# IEC-6 cells [3] = test: Intracellular polyamines by HPLC; assay type: cell-based, rat; conditions: for level of putrescine in the cells / level of spermidine in the cells / level of spermine in the cells: cells grown in presence of DFMO or DEGBG
# Procedure: IEC-6 cells were grown for 4 days in the presence or absence of DFMO (Marion Merrel Dow, Cincinnati, Ohio) the highly specific inhibitor of ODC. DFMO treatment depletes putrescine within 3 hours. Depletion of spermidine requires 24 hours and significant depletion (about 50%) of spermine requires 3 days.
# Intracellular polyamines were analyzed by high performance liquid chromatography. Cells were plated in 60 mm dishes at 6.25×10^4 cells/cm^2 and grown in DMEM/dFBS with or without DFMO or DEGBG. After washing the monolayer three times with ice-cold DPBS, 0.5 M perchloric acid was added and the samples were then frozen at −80° C. until ready for extraction, dansylation, and HPLC. The standard curve encompassed the range of 0.31-10 μM. Values that fell >25% below the curve were considered not detectable. The level of […] was determined by the Bradford method, as described in Anal. Biochem., 72:248-254 (1976).
# CaCo-2 cells [4] = test: Floating cell count in cancerous cells; assay type: cell-based, human
# Procedure: Cancerous human intestinal CaCo-2 cells were grown in similar culture media as described in Example 1, except that one group of the cells was grown in a medium not containing DFMO and another group was grown in a medium containing DFMO. After four days of growth, camptothecin at a dose of 20 μM was added to the culture medium of each of the groups. After 6 hours, the number of floating cells in the media of the two groups of cells was determined. The study was repeated using a different inducer of apoptosis, a combination of 20 ng/ml of tumor necrosis factor-α (TNF-α) and 25 μg/ml of cycloheximide.
# IEC-6 cells [5] = test: Nucleosomal DNA fragmentation assay; assay type: cell-based, rat; conditions: camptothecin 20 μM
# Procedure: Cells were collected for determining the presence or absence of DNA fragmentation. After treatment with camptothecin (or vehicle), floating cells were poured off and combined with one DPBS wash of the monolayer. […] The attached cells were collected for DNA fragmentation by scraping in DPBS and combining with one wash of the flask with DPBS. […] The nucleosomal fragmentation assay was carried out by isolating DNA from the cells using the TACS apoptotic DNA laddering kit (Trevigen, Gaithersburg, Md.) and analyzing the labeled DNA by agarose gel electrophoresis following the manufacturer's instructions.
# caspase 3 [6] = test: Caspase 3 activity assay (DEVD-pNA) in cell lysates; assay type: cell-based, rat; conditions: for caspase 3 activity over time, attached cells: camptothecin exposure 0 to 18 hours, control cells or DFMO treated cells
# Procedure: In a separate flask, following camptothecin or DMSO addition, the cells were harvested after 16 hours in order to obtain a sufficient number of floating cells for analysis. Floating cells were then poured off to be counted and were combined with one wash with cold DPBS (Sigma, St. Louis, Mo.). The attached cells were then harvested for determination of caspase activity. 10 ml of DPBS was added to the flask and the monolayer was scraped and collected into a 25 ml tube. The flask was washed once with 10 ml of DPBS and combined into the 25 ml tube. The cells were pelleted by centrifugation at 800× g for 5 minutes. The supernatant was discarded and the pellet was resuspended in 1 ml of cold DPBS and transferred into a microfuge tube. The cells were pelleted by centrifugation at 10,000× g at 4° C. for 10 minutes. The supernatant was discarded and the cells were lysed in 100 ml of ice cold cell lysis buffer (50 mM HEPES, pH 7.4, 0.1% CHAPS, 1 mM DTT, 0.1 mM EDTA, 0.1% NP40) (Sigma, St. Louis, Mo.). The assay for caspase activity was carried out in a 96-well plate. Into each well was placed 20 μl of cell lysate, 70 μl of assay buffer (50 mM HEPES, pH 7.4, 0.1% CHAPS, 100 mM NaCl, 10 mM DTT, 1 mM EDTA ) and 10 μl of caspase 3 calorimetric substrate (2 mM DEVD-pNA prepared in assay buffer, a caspase specific peptide that is conjugated to the chromogen p-nitroanilide) (Biomol Research Laboratories, Plymouth Meeting, Pa.). The 96-well plate was incubated at 37° C. for 2 hours, during which time the caspase in the sample was allowed to cleave the chromophore pNA from the substrate molecule. Absorbance readings at 405 nm were made after the 2 hour incubation, with the caspase activity being directly proportional to the color reaction. Protein was determined for each sample using the BCA method (Pierce, Rockford, Ill.) and a standard curve for p-nitroanilide was carried out. Results for caspase activity were expressed as pmol of pNA released/mg protein/minute.
# mast cell tumor = test: Dog with mast cell tumor treated with Co60 gamma radiation; assay type: in vivo; conditions: DFMO 100 mg/kg/day orally for four days, adult dog
# Procedure: DFMO at a dosage of 100 mg/kg/day is administered orally for four days to an adult dog suffering from a mast cell tumor on one of its rear legs. The tumor is treated in multiple sessions by exposure to Co^60 gamma radiation as indicated for this type of tumor. The field of exposure to the radiation exceeds the boundaries of the tumor.
# caspase 3 [7] = test: Western blot of caspase 3 levels; assay type: cell-based, rat; conditions: polyamine depleted cells (DFMO)
# Procedure: Total cell protein (50 μg) from cell extracts prepared for caspase 3 assay was separated on 15% SDS-PAGE and transferred to nitrocellulose membranes for western blotting. Equal loading of protein was confirmed by staining the nitrocellulose membrane with Ponceau S (Sigma, St. Louis, Mo.). The membrane was then probed with an antibody directed against caspase 3 (CPP32) (Santa Cruz Biotechnology, Santa Cruz, Calif.). The immunocomplexes were visualized by the enhanced chemiluminescence detection system.
# CaCo-2 cells [8] = test: Examples 1 to 8 repeated in cancerous cells; assay type: cell-based, human; conditions: CaCo-2 cells substituted for IEC-6
# Excerpt: Studies described in Examples 1 to 8 are repeated, except that cancerous human intestinal CaCo-2 cells (ATCC no. HTB37) are substituted for the IEC-6 rat intestinal cell lines.
# [9] = 0 time, control cells or DFMO treated cells
# [10] = 18 hours, control cells or DFMO treated cells
# [11] = cells grown 4 days with DFMO, 6 hours after camptothecin
smiles,measurement,setting,value
NCCCCN [putrescine],number of floating cells compared to control,IEC-6 cells [1]; exogenous 10 μM putrescine along with DFMO,restored the number of floating cells to control levels
same,effect on caspase activity,caspase 3 [2],did not reveal any effect
"CCC(=NNC(=N)N)C(CC)=NNC(=N)N [DEGBG, diethylglyoxal bis-(guanylhydrazone)]",level of putrescine in the cells,IEC-6 cells [3],significantly increased
same,level of spermidine in the cells,IEC-6 cells [3],decreasing
same,level of spermine in the cells,IEC-6 cells [3],decreasing
same,percentage of floating cells,IEC-6 cells [1]; day 1 of treatment,26.6%
same,percentage of floating cells,IEC-6 cells [1]; day 2 of treatment,26.9%
same,percentage of floating cells,IEC-6 cells [1]; day 4 of treatment,23.3%
CC[C@@]1(O)C(=O)OCc2c1cc1n(c2=O)Cc2cc3ccccc3nc2-1 [camptothecin],number of floating cells,"CaCo-2 cells [4]; no DFMO, camptothecin 20 μM, 6 hours",2.7 +/− .06
same,"DNA fragmentation, attached cells",IEC-6 cells [5]; attached cells,did not show remarkable DNA fragmentation
same,"DNA fragmentation, detached cells",IEC-6 cells [5]; detached (floating) cells,showed characteristic nucleosomal DNA fragments
same,"caspase 3 activity, detached cells","caspase 3 [6]; camptothecin 20 μM, detached (floating) cells",increased caspase 3 activity
same,"increase in caspase 3 activity, attached cells","caspase 3 [6]; camptothecin 20 μM, harvested after 16 hours, attached cells",7 fold
same,"caspase 3 activity over time, attached cells",caspase 3 [6],increased progressively with time
same,increase in the number of floating cells compared to DMSO control group,"IEC-6 cells [1]; camptothecin 20 μM, within 6 hours",8 fold
same,floating cells (percentage of total cell count),IEC-6 cells [1]; [9],6.2%
same,floating cells (percentage of total cell count),IEC-6 cells [1]; [10],49.3%
same,onset of camptothecin induced apoptosis (number of floating cells),IEC-6 cells [1]; control cells (no DFMO),≤ 3 h
"NCCCC(N)(C(=O)O)C(F)F (racemic) [DFMO, DL-œ-difluoromethylornithine]",protection of cancerous cells from apoptosis,CaCo-2 cells [4]; apoptosis induced by camptothecin or TNF-α + cycloheximide,did not protect the cancerous cells from apoptosis
same,number of floating cells,"CaCo-2 cells [4]; with DFMO 4 days, 20 ng/ml TNF-α and 25 μg/ml cycloheximide",6.2 +/− .6
same,number of floating cells,"CaCo-2 cells [4]; with DFMO 4 days, camptothecin 20 μM, 6 hours",3.7 +/− .24
same,number of floating cells,"CaCo-2 cells [4]; with DFMO 4 days, no TNF-α + cycloheximide",4.8 +/− .5
same,number of floating cells,"CaCo-2 cells [4]; with DFMO 4 days, no camptothecin",3.1 +/− .06
same,time required for depletion of spermidine,IEC-6 cells [3]; DFMO treatment of IEC-6 cells,24 h
same,time required for significant depletion of spermine,IEC-6 cells [3]; DFMO treatment of IEC-6 cells,3 days
same,time to depletion of putrescine,IEC-6 cells [3]; DFMO treatment of IEC-6 cells,≤ 3 h
same,depletion of spermine,"IEC-6 cells [3]; DFMO treatment, 3 days",about 50%
same,level of putrescine in the cells,IEC-6 cells [3],decreases
same,level of spermidine in the cells,IEC-6 cells [3],decreases
same,level of spermine in the cells,IEC-6 cells [3],decreases
same,death of surrounding normal tissues,mast cell tumor,visually noticeable decrease in death of the surrounding normal tissues
same,effect on tumor,mast cell tumor,the tumor is killed
same,level of caspase 3 (Western blot) compared with controls,caspase 3 [7],not significantly different
same,inhibition of apoptosis,CaCo-2 cells [8],No inhibition of apoptosis is observed
same,exposure to camptothecin after which significant increase in caspase 3 activity was observed,caspase 3 [6]; DFMO treated cells,18 h
same,"caspase 3 activity over time, attached cells",caspase 3 [6],did not show remarkable increases in caspase 3 activity for up to 12 hours
same,lower caspase 3 activity compared to control,caspase 3 [6]; [11],approximately 50%
same,number of floating cells compared to control,IEC-6 cells [1]; DFMO alone,decreased the number of floating cells
same,delay of onset of apoptosis,IEC-6 cells [1]; DFMO treated cells exposed to camptothecin,up to 12 hours
same,floating cells (percentage of total cell count),IEC-6 cells [1]; [9],2.2%
same,floating cells (percentage of total cell count),"IEC-6 cells [1]; 12 hours, DFMO treated cells",9.3%
same,floating cells (percentage of total cell count),IEC-6 cells [1]; [10],29.1%
same,decrease in the number of floating cells compared to control cells treated with camptothecin,IEC-6 cells [1]; [11],~3 fold
same,protection against apoptosis,"IEC-6 cells [1]; cells grown 4 days with DFMO, DMSO (vehicle) or camptothecin, 6 hours",protected against both DMSO (vehicle) and camptothecin-induced apoptosis
same,percentage of floating cells,IEC-6 cells [1]; day 1 of treatment,19.2%
same,percentage of floating cells,IEC-6 cells [1]; day 2 of treatment,12.4%
same,percentage of floating cells,IEC-6 cells [1]; day 4 of treatment,2.2%
